Assay results reported in ChEMBL document CHEMBL1201862, “PubChem BioAssay data set” (2004).
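The compound was tested at five concentrations on cells cultured in 96-well plates, with a 48-hour exposure period. GI50: concentration for 50% inhibition of growth.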 Calls of active or inactive are those of the source. Rule as the data show it: active = GI50 up to about 1.1 µM and inactive = higher.

What was measured:
Assay in all cases: NCI-60 cell line screen, 48 h
KM12 = tested on: KM12
SF-539 = tested on: SF-539
SF-295 = tested on: SF-295
TK-10 = tested on: TK-10
SF-268 = tested on: SF-268
SW-620 = tested on: SW-620
IGROV-1 = tested on: IGROV-1
SN12C = tested on: SN12C
SNB-75 = tested on: SNB-75
RXF 393 = tested on: RXF 393
OVCAR-8 = tested on: OVCAR-8
Malme-3M = tested on: Malme-3M
RPMI-8226 = tested on: RPMI-8226
NCI-H23 = tested on: NCI-H23
786-0 = tested on: 786-0
SNB-19 = tested on: SNB-19

Measured: GI50

CC(C)C(NCc1c2ccccc2nc2ccccc12)C(=O)O (stereo not given)
inactive: KM12 33.3 µM | SF-539 45.3 µM | SF-295 81.5 µM | TK-10 > 100 µM | SF-268 36.7 µM | SW-620 39.9 µM | IGROV-1 27.4 µM | SN12C 50 µM | SNB-75 61.8 µM | RXF 393 24.5 µM | OVCAR-8 26.5 µM | Malme-3M 55.3 µM | RPMI-8226 27.3 µM | NCI-H23 41.8 µM | 786-0 61.2 µM

c1ccc(-c2nnc(-c3nn(-c4ccccc4)c4nc5ccccc5nc34)o2)cc1
inactive: KM12 > 100 µM | SF-539 68.4 µM | SF-295 > 100 µM | TK-10 > 100 µM | SF-268 > 100 µM | SW-620 92.3 µM | IGROV-1 > 100 µM | SN12C > 100 µM | SNB-75 > 100 µM | RXF 393 4.3 µM | OVCAR-8 51.9 µM | SNB-19 > 100 µM | Malme-3M 45.5 µM | RPMI-8226 39.1 µM | NCI-H23 41.2 µM | 786-0 46.9 µM

COc1ccc(-c2c(C3=NCCCN3)nnn2-c2ccc([N+](=O)[O-])cc2)cc1
inactive: KM12 > 100 µM | SF-539 > 100 µM | SF-295 > 100 µM | TK-10 > 100 µM | SF-268 > 100 µM | SW-620 > 100 µM | IGROV-1 > 100 µM | SN12C > 100 µM | SNB-75 > 100 µM | RXF 393 > 100 µM | OVCAR-8 > 100 µM | SNB-19 > 100 µM | Malme-3M > 100 µM | RPMI-8226 > 100 µM | NCI-H23 > 100 µM | 786-0 > 100 µM

COC1C(OC(=S)Nc2ccccc2)c2ccccc2N1C(C)=O (stereo not given)
inactive: KM12 29.9 µM | SF-539 > 100 µM | SF-295 28.4 µM | SW-620 34 µM | IGROV-1 80.4 µM | SN12C > 100 µM | SNB-75 > 100 µM | RXF 393 26.5 µM | OVCAR-8 > 100 µM | SNB-19 > 100 µM | RPMI-8226 50.4 µM | NCI-H23 > 100 µM | 786-0 > 100 µM

CSC1=Nc2ccccc2N=C(c2ccccc2)C1
inactive: KM12 36 µM | SF-539 > 100 µM | SF-295 > 100 µM | TK-10 80 µM | SF-268 > 100 µM | SW-620 15.1 µM | IGROV-1 > 100 µM | SN12C > 100 µM | SNB-75 66.5 µM | RXF 393 20.4 µM | OVCAR-8 61.7 µM | SNB-19 > 100 µM | Malme-3M > 100 µM | NCI-H23 50.2 µM | 786-0 34.5 µM
